Patent US4045567A, “2-Alkyl-5-thiazole-carboxylic acid derivatives in hypolipemiant compositions” (Roussel Uclaf, priority 1969, dated 1977)
Like-named read-outs stand apart in the source and are kept apart here.

How the values were obtained:
[1] = Hypothermic activity in guinea pigs; format: in vivo; details: intraperitoneal, 100 mg/kg, 1, 2 and 3 hours after administration
Procedure: The hypothermic activity was determined on guinea pigs by administering the test compound, ethyl 2-n-propyl-thiazole-4-carboxylate, intraperitoneally at a dose of 100 mg/kg. The body temperature of the guinea pigs was determined 1/2 hour before the administration of the test compound and then 1, 2 and 3 hours after the said administration.

in vivo = details: mouse, mice, observed one week
Procedure: 1. determination of the acute toxicity:
The acute toxicity has been determined on batches of ten mice weighing from 18 to 22 gm. The products were administered in suspension in gum arabic solution in water, at increasing doses, either by oral route or by intraperitoneal route.
The animals are kept under observation for one week. The average lethal dose (LD50) is determined graphically by the method of Dragstedt and Lang.
The acute toxicity was determined on batches of ten mice weighing from 18 to 22 gm. Ethyl 2-n-propyl-thiazole-4-carboxylate was administered in suspension in gum arabic solution in water, at increasing doses by the intraperitoneal route. The animals were kept under observation for one week. The average lethal dose (LD50) was determined graphically by the method of Dragstedt and Lang.

triglycerides = test: Hypolipemiant activity (serum triglycerides) in the rat, technique of Jacobs et al; format: in vivo, male rats of the Wistar strain; details: 4 hours after ingestion; for Percentage of Reduction by Comparison With Controls (triglycerides): oral (oesophagial probe), 20 mg/kg
Procedure: 2. Determination of hypolipemiant activity:
The hypolipemiant activity has been determined on the rat according to the technique of Jacobs et al, Proc. Soc. Exp. Biol. Med., [1965], 119 (4) pp. 1117-1120.
Male rats of the Wistar strain weighing from 160 to 180 gm are not fed for 24 hours. The products employed in a 5% suspension in gum arabic solution in water, are administered through an oesophagial probe at doses of 20, 40 and 80 mg/kg. Four hours after ingestion of the product, some blood is withdrawn on which a determination of the triglycerides is carried out.
The principle of the determination is as follows:
The serum lipids are extracted with petroleum ether in the presence of ethanol. The lipidic solution is treated several times with 87% ethanol. A solution is thus obtained, the upper part of which contains the glycerides and the lower part, the phospholipids.
The weight of the glycerides is determined by determination of glycerol by periodic acid oxidation and determination of the formaldehyde with chromotropic acid.
A. determination of hypolipemiant activity:
The hypolipemiant activity was determined on the rat using the technique of Jacobs et al (Proc. Soc. Exp. Biol. Med., [1965], 119 [4], pp. 1117-1120). Male rats of the Wistar strain weighing from 160 to 180 gm were not fed for 24 hours. The product employed in a 5% suspension in gum arabic solution in water, was administered orally through an oesophagial probe at doses of 20 and 80 mg/kg. Four hours after ingestion of the product, some blood was withdrawn and a determination of the triglycerides therein was made.
The serum lipids are extracted with petroleum ether in the presence of ethanol and the lipidic solution was treated several times with 87% ethanol to obtain a solution, the upper part of which contained the glycerides and the lower part the phospholipids. The weight of the glycerides by determination of glycerol by periodic acid oxidation and determination of the formaldehyde with chromotropic acid is estimated.

reddening of the ear = test: Peripheral vasodilatory effect (reddening of the ear) in guinea pigs; format: in vivo, guinea pigs with non-pigmented ears; set-up: key to Intensity (of reddening): intensity, which is recorded subjectively from 0 to +++; intensity, which is recorded subjectively from 0 to +++; intensity, which is recorded subjectively from 0 to +++; intensity, which is recorded subjectively from 0 to +++; details: for Duration (of reddening) / Intensity (of reddening) / Period of Induction: oral
Procedure: Peripheral vasodilatory effect: The peripheral vasodilatory effect has been investigated on the guinea pigs with non-pigmented ears by the appearance of the reddening of the ear. The animals, after being starved, are administered the products by oral route, at different dosages. The time of appearance of a reddening of the ears, the duration of this reddening and its intensity, which is recorded subjectively from 0 to +++ is determined. B. peripheral vasodilatory effect: The peripheral vasodilatory effect was investigated on guinea pigs with non-pigmented ears by the appearance of the reddening of the ear. The animals were starved and the product was administered intraperitoneally at a dose of 100 mg/kg. The time of appearance of a reddening of the ears, the duration of this reddening and its intensity being recorded subjectively from 0 to +++ is determined.

Solubility (qualitative) = format: physicochemical; details: for solubility in other solvents: organic solvents, sodium hydroxide
[2] = ip, intraperitoneal, read-out: average lethal dose (LD50), Intraperitoneal Route
[3] = oral, read-out: average lethal dose (LD50), Oral Route

CCCc1nc(C(=O)OCC)cs1 [ethyl 2-n-propyl-thiazole-4-carboxylate, reference compound]
hypothermic activity [1]: no hypothermic activity | LD50 at 168 h (in vivo; [2]): 1000 to 1500 mg/kg | hypolipemiant activity (action on the triglycerides) (triglycerides; oral, 20 and 80 mg/kg, comparison test): no action on the triglycerides | peripheral vasodilatory effect (reddening of the ear; intraperitoneal, 100 mg/kg, comparison test): no vasodilatory activity

CCCCCc1ncc(C(=O)O)s1 [2-n-pentyl-5-thiazolecarboxylic acid]
solubility in other solvents (Solubility (qualitative)): soluble in sodium hydroxide and alcohol, slightly soluble in ether | solubility in water (Solubility (qualitative)): insoluble in water

CCCCCCCCCCCc1ncc(C(=O)O)s1 [2-n-undecyl-5-thiazolecarboxylic acid]
solubility in other solvents (Solubility (qualitative)): soluble in alcohol and acetone | solubility in water (Solubility (qualitative)): insoluble in water

CCCc1ncc(C(=O)O)s1 [2-propyl-5-thiazolecarboxylic acid]
LD50 at 168 h (in vivo; [2]): 1680 mg/kg | LD50 at 168 h (in vivo; [3]): > 2000 mg/kg | Percentage of Reduction by Comparison With Controls (triglycerides) (triglycerides): > 50% | Duration (of reddening) (reddening of the ear; 50 mg/kg): 30 min | Intensity (of reddening) (reddening of the ear; 50 mg/kg): + | Period of Induction (reddening of the ear; 50 mg/kg): 13 min | Duration (of reddening) (reddening of the ear; 100 mg/kg): 32 min | Intensity (of reddening) (reddening of the ear; 100 mg/kg): ++ | Period of Induction (reddening of the ear; 100 mg/kg): 10 min | solubility in other solvents (Solubility (qualitative)): soluble in sodium hydroxide and alcohol, slightly soluble in ether | solubility in water (Solubility (qualitative)): insoluble in water

Cc1ncc(C(=O)O)s1 [2-methyl-5-thiazolecarboxylic acid]
Percentage of Reduction by Comparison With Controls (triglycerides) (triglycerides): 40% | Duration (of reddening) (reddening of the ear; 10 mg/kg): 30 min | Intensity (of reddening) (reddening of the ear; 10 mg/kg): +++ | Period of Induction (reddening of the ear; 10 mg/kg): 5 min | Duration (of reddening) (reddening of the ear; 20 mg/kg): 32 min | Intensity (of reddening) (reddening of the ear; 20 mg/kg): +++ | Period of Induction (reddening of the ear; 20 mg/kg): 3 min | Duration (of reddening) (reddening of the ear; 50 mg/kg): 35 min | Intensity (of reddening) (reddening of the ear; 50 mg/kg): +++ | Period of Induction (reddening of the ear; 50 mg/kg): 3 min

CCCc1ncc(C(=O)OCC2COC(C)(C)O2)s1 (stereo not drawn) [2,3-Isopropylidenedioxy-propyl 2-propyl-5-thiazolecarboxylate]
solubility in other solvents (Solubility (qualitative)): soluble in ether, benzene and ethanol | solubility in water (Solubility (qualitative)): insoluble in water

CCCc1ncc(C(=O)OCCc2ccccc2)s1 [Phenylethyl 2-propyl-5-thiazolecarboxylate]
solubility in other solvents (Solubility (qualitative)): soluble in ether and acetone | solubility in water (Solubility (qualitative)): insoluble in water

CCCc1ncc(C(=O)OCCN(CC)CC)s1 [chlorohydrate of N,N-diethylaminoethyl 2-propyl-5-thiazolecarboxylate]
solubility in other solvents (Solubility (qualitative)): soluble in water, ethanol, propylene glycol, acetone, and chloroform, slightly soluble in ethyl acetate and benzene, and insoluble in ether | solubility in water (Solubility (qualitative)): soluble in water

CCCCc1ncc(C(=O)O)s1 [2-n-butyl-5-thiazolecarboxylic acid]
solubility in other solvents (Solubility (qualitative)): soluble in alcohol, chloroform and benzene | solubility in water (Solubility (qualitative)): insoluble in water

CCCCCCc1ncc(C(=O)O)s1 [2-n-hexyl-5-thiazolecarboxylic acid]
solubility in other solvents (Solubility (qualitative)): soluble in sodium hydroxide and alcohol | solubility in water (Solubility (qualitative)): insoluble in water

CCc1ncc(C(=O)O)s1 [2-ethyl-5-thiazolecarboxylic acid, 2-Ethyl-5-thiazolecarboxylic acid]
LD50 at 168 h (in vivo; [2]): 525 mg/kg | LD50 at 168 h (in vivo; [3]): > 2000 mg/kg | Percentage of Reduction by Comparison With Controls (triglycerides) (triglycerides): 50% | Duration (of reddening) (reddening of the ear; 50 mg/kg): 50 min | Intensity (of reddening) (reddening of the ear; 50 mg/kg): +++ | Period of Induction (reddening of the ear; 50 mg/kg): 6 to 8 min | Duration (of reddening) (reddening of the ear; 100 mg/kg): 60 min | Intensity (of reddening) (reddening of the ear; 100 mg/kg): +++ | Period of Induction (reddening of the ear; 100 mg/kg): 6 to 7 min | solubility in other solvents (Solubility (qualitative)): soluble in ethanol and sodium hydroxide | solubility in water (Solubility (qualitative)): insoluble in water

CCCc1ncc(C(=O)OCc2ccccc2)s1 [benzyl 2-propyl-5-thiazolecarboxylate, Benzyl 2-propyl-5-thiazolecarboxylate]
solubility in other solvents (Solubility (qualitative)): soluble in ether and ethanol | solubility in water (Solubility (qualitative)): insoluble in water

CCCc1ncc(C(=O)O)s1 [diisopropylammonium 2-propyl-5-thiazolecarboxylate]
solubility in other solvents (Solubility (qualitative)): soluble in water and in alcohol | solubility in water (Solubility (qualitative)): soluble in water
